Here are results for 2 molecules from article PMC11645656, “MRGPRX4 mediates phospho-drug associated pruritus in a humanized mouse model” (Science translational medicine, 2024).

Holding throughout (assay type): cell-based
Experiment [1] concerns the target MRGPRX4 S83L (L83) (Homo sapiens, UniProt Q96LA9). The experiment in a line: PRESTO-Tango β-arrestin recruitment assay, HTLA cells stably expressing S83L MRGPRX4. The conditions noted are these: single replicate. The procedure: HTLA cells, a cell line derived from HEK293 and engineered to stably express a tTA-dependent luciferase reporter and a β-arrestin2-TEV fusion gene, were generously provided by Richard Axel's laboratory. HTLA cells were cultured in growth medium containing 2 μg/ml puromycin and 100 μg/ml hygromycin B in 5% CO2 at 37 °C. Stably MRGPRX4-expressing HTLA cells were generated by transfecting pcDNA3.1(+)-Zeo containing MRGPRX4-Tango construct (either with WT or S83L mutant sequence) into HTLA cells with Lipofectamine 3000 and selecting the successful transfected clones with Zeocin.
HTLA cells stably expressing either WT or S83L MRGPRX4 were seeded in PDL-coated 96-well white clear bottom cell culture plates with DMEM containing 10% FBS, at a density of 35,000 cells per well and were allowed to attach to the bottom of the wells overnight. The next day, growth medium was replaced with 100 μl of serum-free medium containing the tested drugs at various concentrations, and the cells were then incubated at 37°C for 24 h. On the following day, media with drug solutions was removed and 50 μl per well of Bright-Glo™ Reagent from Bright-Glo™ Luciferase Assay System (Promega) was loaded. The plate was incubated at room temperature in the dark for 5 min, and the relative luminescence units were measured using the Flexstation-3 instrument with SoftMax®Pro 7.1 software (Molecular Devices). Dose response curves and EC50s were analyzed as described above.
MRGPRX4 by β-arrestin (Tango) recruitment assay. Data are from three independent experiments,
performed in triplicate, and depicted as mean ± SEM.

Experiment [2] addresses MRGPRX4 WT (S83) (Homo sapiens, UniProt Q96LA9, L83S). The experiment in a line: Calcium mobilization assay (FLIPR), WT (S83) MRGPRX4 transiently expressed in HEK293T cells. Also noted: expressed in transfected cells; host or cells: HEK293T, transient. The conditions noted are these: for EC50: WT (S83), Fig. 4E, unit not in the head, taken from Concentration (M) of the sheet and pEC50 [M] of Fig. 4E; for Calcium mobilization response (Fig. 4D dose-response) / calcium mobilization response (Fig. 3E and 3F dose-response): WT; for Calcium mobilization response (Fig. 4D dose-response): each cell one replicate; for Potency at S83- vs L83-MRGPRX4: calcium mobilization, compared with S83L (A17). From the text:
Fig. 4. […] Hydrogen bond is shown as cyan dashed lines. […] Data are from three independent experiments, performed in triplicate. (E) pEC50 plots of various agonists toward S83- and L83-MRGPRX4 through calcium mobilization assay. […] Each data point represents an independent experiment, performed in triplicate. The extra sum-of-square F test was used to examine the difference in EC50 values. One-sided t-test was used for nateglinide. *p< 0.05, **p< 0.01 and ***p< 0.001. ns = no statistical significance. Both (D) and (E) are reported as the mean ± SEM. N.D.= no detectable response ≤ 100 μM.
HEK293 cells and MRGPRX4 stably expressed HEK293 cells were seeded in 100 μl culture media on 96-well plates at a density of 40,000 cells per well and incubated overnight. The next day, the media were replaced with a dye-loading solution from the FLIPR Calcium 5 assay kit (Molecular Devices), diluted in Hank's Balanced Salt Solution (HBSS) with 20 mM HEPES, pH 7.4. After 1 h of incubation at 37°C, cells were allowed to recover for 10 min in the dark at room temperature prior to performing intracellular calcium mobilization assay in a Flexstation-3 instrument with SoftMax®Pro 7.1 software (Molecular Devices). Serial concentrations of tested drugs were prepared in HBSS/HEPES solution at 3X concentration. […] Compounds were tested in triplicates and the signals were averaged. Responses were determined by subtracting the minimum signal (at the baseline before adding the drug) from the maximum signal (obtained after drug stimulation). Four-parameter logistic (4PL) curve fit was used to plot the dose-response curves. […] Both dose-response curve fitting and EC50s calculation are computed with GraphPad Prism software (version: 6.o or above).
(§1) To generate murine Mrgprs expressing cells, HEK293T cells (ATCC) were seeded on poly-D-lysine coated 96 well plate at 25,000 cells per well one day prior to transfection. HEK293T cells were transiently co-transfected with the mammalian expression plasmids carrying cDNA encoding the murine Mrgpr genes and plasmid inserted with cDNA encoding murine α-subunit of the heterotrimeric G15 protein (Gα15) in triplicates using Lipofectamine LTX reagents (Thermo Scientific). To generate WT, S83L, and alanine mutant MRGPRX4-expressing cells, HEK293T cells were seeded on poly-D-lysine coated 384 well plate at 12,000 cells per well one day prior to transfection. Mammalian expression plasmids pLX304 (vector from Addgene) carrying different MRGPRX4 coding sequences were transiently transfected into HEK293T cells in triplicates with Lipofectamine LTX reagents (Thermo Scientific). Intracellular calcium mobilization assays were performed after one day of transfection. Murine Mrgprs tested include Mrgpra1, Mrgpra2a, Mrgpra2b, Mrgpra3, Mrgpra4, Mrgpra6, Mrgpra9, Mrgpra10, Mrgpra11, Mrgpra12, Mrgpra14, Mrgprb5, Mrgprb6, Mrgprb10, Mrgprb11, and Mrgprc11. WT and mutant MRGPRX4 constructs tested include WT, S83L, R82A, R86A, R95A, W158A, Y250A, and Y254A.

Experiment [3] has as its target T1, MRGPRX4 Y254A (Homo sapiens, UniProt Q96LA9, L83S/Y254A).
T1 construct: expressed in transfected cells; host or cells: HEK293T, transient
The experiment in a line: Calcium mobilization assay (FLIPR), MRGPRX4 Y254A mutant. The following applies: for Calcium mobilization response, dose-response replicate data (Fig. 3E and 3F): Y254A.
From the text: Fig. 3. […] (A) Cryo-EM density map of MRGPRX4-Gq in complex with fospropofol. (B) The density map of fospropofol and R82 of MRGPRX4. (C and D) Key molecular interactions between fospropofol and the hydrophilic (C) and hydrophobic (D) part of the agonist binding pocket of MRGPRX4. Amino acid residues interacting with fospropofol are shown as sticks. Hydrogen bond is shown as cyan dashed lines. […] Data are from at least three independent experiments, each performed in triplicate, and reported as the mean ± SEM. (E) and (F) were collected from the same sets of experiments.
as §1
To generate MRGPRX4 mutant constructs, site-directed mutagenesis was performed using Q5® Site-Directed Mutagenesis Kit (New England Biolabs). The primers were designed by the NEBaseChanger tool, with forward primers spanning designated mutated sequence corresponding to the desired amino acid substitutions. The plasmids with WT MRGPRX4 sequence served as the templates for polymerase chain reaction (PCR) amplification with Q5 high-fidelity polymerase and respective primer pairs according to the manufacturer’s conditions. Then, the linear PCR products underwent phosphorylation, ligation, and simultaneous degradation of template DNA by incubating them with a KLD enzyme mix consisting of T4 polynucleotide kinase, T4 DNA ligase, and DpnI at room temperature for 5 min. Subsequently, the mutated circular plasmids were transformed into NEB 5-alpha competent E. coli by heat-shock method, and the successfully transformed bacteria were selected on LB plates with selection antibiotics. The next day, the transformant colonies were picked, expanded in LB broth containing selection antibiotics overnight. Plasmids were isolated using QIAprep Spin Miniprep Kit (Qiagen) and subjected to sequencing to confirm the mutation.

Values joined by “and” are separate entries in the source; they are usually repeats but may differ in a detail not shown here. Equal entries are not always repeated. Where two headings read alike, the source gives them in different places.

Chain of MRGPRX4 S83L (L83) (Q96LA9 whole entry, stated change not applied, the tested form may be a part): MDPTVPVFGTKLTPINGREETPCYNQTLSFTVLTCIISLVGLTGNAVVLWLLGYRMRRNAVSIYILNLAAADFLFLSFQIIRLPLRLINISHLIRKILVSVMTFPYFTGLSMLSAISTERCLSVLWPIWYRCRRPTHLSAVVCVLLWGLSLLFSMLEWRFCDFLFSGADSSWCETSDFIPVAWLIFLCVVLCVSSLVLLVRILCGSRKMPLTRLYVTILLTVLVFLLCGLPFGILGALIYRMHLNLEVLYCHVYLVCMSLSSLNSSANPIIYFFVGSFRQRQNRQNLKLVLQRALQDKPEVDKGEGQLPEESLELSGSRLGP
Chain of MRGPRX4 WT (S83) (Q96LA9 whole entry L83S): as the sequence (Q96LA9 whole entry, stated change not applied, the tested form may be a part) above, with L83S counted along it
T1 sequence (Q96LA9 whole entry L83S/Y254A): as the sequence (Q96LA9 whole entry, stated change not applied, the tested form may be a part) above, with L83S, Y254A counted along it

With `O=C1NC(c2ccccc2)(c2ccccc2)C(=O)N1COP(=O)(O)O` [Fosphenytoin], the “fig. S7 response (raw signal), concentration-response” value in experiment [1] (3.91e-6 M) is 13508.2; in experiment [1] (7.81e-6 M), 22144.4. Further, the EC50 in experiment [2] (read-out: EC50s (each well represents individual experiment)) is 7.21e-07 M and 5.46e-06 M and 1.46e-06 M. Besides, the results for the “Calcium mobilization response (Fig. 4D dose-response)” value in experiment [2] (5.65e-9 M) and in experiment [2] (4.12e-6 M) were -11.5543 and 76.9188, respectively. Besides, the entries for the “calcium mobilization response (Fig. 3E and 3F dose-response)” value in experiment [2] (4.12e-6 M) and in experiment [2] (1.23e-5 M) were 76.9188 and 82.4819, respectively. In addition, in experiment [2], the “Potency at S83- vs L83-MRGPRX4” value is “improved potency at S83-MRGPRX4”. The “Calcium mobilization response at alanine mutant Y254A vs WT” value in experiment [3] is “disrupted calcium mobilization”. Moreover, the “Calcium mobilization response, dose-response replicate data (Fig. 3E and 3F)” value (from here on “Calcium mobilization response … (Fig. 3E and 3F)”) in experiment [3] (concentration 188 pM) was 6.602 and -1.3205 and -9.574 and 20.2858 and 13.0936 and 9.774 and -0.7431 and 13.747; in experiment [3] (concentration 565 pM), 20.4677 and 20.7978 and 5.942 and 10.3273 and 0.3688 and 21.3924 and 9.2885 and 13.5241; in experiment [3] (concentration 1.69e-9 M), 15.8459 and 12.5447 and -5.6121 and 28.0313 and 20.8391 and 13.6468 and 20.2118 and 18.4284; in experiment [3] (concentration 5.08e-9 M), 23.7689 and 10.8941 and -0.3301 and 18.6261 and 10.3273 and 20.8391 and 13.5241 and 11.5177; in experiment [3] (concentration 1.52e-8 M) it was 15.8459 and 17.8267 and 10.564 and 26.3716 and 23.6054 and 16.9663 and 20.8805 and 19.7659; in experiment [3] (concentration 4.57e-8 M) it was 19.1472 and 14.8556 and 8.913 and 19.1793 and 12.5403 and 20.2858 and 17.7596. Also, the “Calcium mobilization response … (Fig. 3E and 3F)” value in experiment [3] (concentration 1.37e-7 M) was 18.8171 and 31.3618 and 9.243 and 27.4781 and 26.9248 and 21.3924 and 19.3201; in experiment [3] (concentration 4.12e-7 M), 18.4869 and 19.4773 and 3.301 and 26.9248 and 12.5403 and 32.4573 and 12.4094; in experiment [3] (concentration 1.23e-6 M), 21.1279 and 18.1568 and 6.272 and 32.4573 and 21.9456 and 23.0521 and 14.8616 and 16.645; in experiment [3] (concentration 3.7e-6 M) it was 15.5158 and 10.2338 and 7.923 and 31.3509 and 13.0936 and 21.9456 and 13.9699 and 13.3011; in experiment [3] (concentration 1.11e-5 M) it was 7.923 and -1.651 and 1.651 and 24.1586 and 18.0728 and 21.9456 and 2.8237 and 17.9825; in experiment [3] (concentration 3.33e-5 M), 5.942 and 0.9904 and -9.904 and 16.4131 and 10.3273 and 31.3509 and 7.059 and 4.161. Further, the “Calcium mobilization response … (Fig. 3E and 3F)” value in experiment [3] (concentration 0.0001 M) is 1.651 and -5.282 and 12.5403 and 18.0728 and 14.2001 and 2.601 and 7.951.

With `CC(C)c1cccc(C(C)C)c1OCOP(=O)(O)O` [Fospropofol], in experiment [1] (1.95e-8 M), the “fig. S7 response (raw signal), concentration-response” value was 10514. Also, in experiment [2] (EC50s (each well represents individual experiment)), the EC50 is 2.8e-08 M and 4.03e-08 M and 1.9e-08 M. The “calcium mobilization response (Fig. 3E and 3F dose-response)” value in experiment [2] (4.57e-8 M) is given as 59.0909; in experiment [2] (4.12e-7 M), 88.6023. Further, the “Calcium mobilization response (Fig. 4D dose-response)” value in experiment [2] (4.12e-7 M) amounted to 88.6023. For the same molecule, the “Potency at S83- vs L83-MRGPRX4” value in experiment [2] is recorded as “improved potency at S83-MRGPRX4”. In experiment [3], the “Calcium mobilization response at alanine mutant Y254A vs WT” value is reported as “disrupted calcium mobilization”.
